Among the data in patent US20240425490A1, “SULFAMIDE RIBONUCLEOTIDE REDUCTASE (RNR) INHIBITORS AND USES THEREOF” (Boundless Bio, Inc., priority 2021, published 2024) are IC50 values, retold here.

Structures are written as SMILES.

For the assay, the target named is T1, RNR (RNR1:RNR2 1:1) (Homo sapiens, UniProt P23921).
T1 sequence (P23921 1-792): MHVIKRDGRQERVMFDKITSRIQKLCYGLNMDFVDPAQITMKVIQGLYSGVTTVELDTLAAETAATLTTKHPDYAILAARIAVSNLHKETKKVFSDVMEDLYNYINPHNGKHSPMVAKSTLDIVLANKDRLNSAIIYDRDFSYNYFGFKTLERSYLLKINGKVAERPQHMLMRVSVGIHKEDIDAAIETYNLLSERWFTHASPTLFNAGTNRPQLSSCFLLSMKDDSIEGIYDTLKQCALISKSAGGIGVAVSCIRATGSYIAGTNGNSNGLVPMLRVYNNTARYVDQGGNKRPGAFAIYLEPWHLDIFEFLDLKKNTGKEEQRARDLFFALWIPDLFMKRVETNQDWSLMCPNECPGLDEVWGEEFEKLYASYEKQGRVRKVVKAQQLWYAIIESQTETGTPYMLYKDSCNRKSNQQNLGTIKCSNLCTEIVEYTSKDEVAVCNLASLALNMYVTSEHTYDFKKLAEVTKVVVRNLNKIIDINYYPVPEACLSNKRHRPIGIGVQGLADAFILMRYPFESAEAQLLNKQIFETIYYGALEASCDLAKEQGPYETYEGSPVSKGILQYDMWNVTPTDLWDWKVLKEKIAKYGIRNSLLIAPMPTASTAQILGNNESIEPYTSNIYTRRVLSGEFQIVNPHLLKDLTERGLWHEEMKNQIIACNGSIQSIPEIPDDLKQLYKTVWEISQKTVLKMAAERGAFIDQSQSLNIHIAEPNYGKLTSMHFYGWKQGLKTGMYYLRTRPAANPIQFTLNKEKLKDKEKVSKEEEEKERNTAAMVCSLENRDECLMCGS
Put plainly: RNR enzyme activity, rapid-fire mass spectrometry (RFMS) assay. The format is biochemical. The note with it: RNR 50 nM, CDP 5 μM, ATP 1 mM, 37° C., 45 min, compounds screened up to 50 μM, read-out: RF/MS IC50. Here is the method:
A rapid-fire mass spectrometry (RFMS) assay was used to assess RNR enzyme activity using a 384 well plate and a robotic platform.
The plate layout included two validated reference compounds (Triapine (3-AP) and Hydroxyurea (HU)): • A dose response in duplicate; top concentration: 5 μM (3-AP) and 250 μM (HU), semi-log dilutions. • Spike wells in triplicate randomly spotted at four concentrations: • 250 μM, 100 μM, 30 μM and 2 μM for HU • 5 μM, 2 μM, 0.6 μM and 0.04 μM for 3-AP
First, the multidrop pipes were saturated for 30 minutes with enzymatic solution. Then 30 μL of Stop solution was distributed in column 24. Next, 15 μL of enzyme was distributed in column 1 to 24. Next, a pre-incubation step of 15 minutes at room temperature occurred, followed by distribution of 15 μL of substrate solution (column 1 to 24). Next, the plate was incubated for 45 minutes at 37° C. 30 μL of Stop solution was distributed to columns 1 to 23.
The final parameters for the enzyme reactions were: • Incubation: 37° C., 45 min • [CDP]: 5 μM; [ATP]: 1 mM; [NADPH]: No • [RNR] final: 50 nM with 1:1 (RNR1:RNR2) ratio • Final volume: 30 μL • Stop solution: 6% HCOOH containing 2 μM of 15
Turning to `CCCCC1CCN(S(=O)(=O)N[C@H](c2n[nH]c(=O)o2)[C@H](C)c2c(F)ccc(C)c2C)CC1` [Example 79, 4-butyl-N-((1S,2R)-2-(6-fluoro-2,3-dimethylphenyl)-1-(5-oxo-4,5-dihydro-1,3,4-oxadiazol-2-yl)propyl)piperidine-1-sulfonamide], the IC50 was in the range of 1 to 10 µM.

Consider `Cc1ccc(F)c(C(C)[C@H](NS(=O)(=O)N2CCCC3CN(C(=O)OC(C)(C)C)CC32)c2n[nH]c(=O)o2)c1C` (stereo partly drawn) [Example 23, tert-butyl 1-(N-((1S)-2-(6-fluoro-2,3-dimethylphenyl)-1-(5-oxo-4,5-dihydro-1,3,4-oxadiazol-2-yl)propyl)sulfamoyl)-octahydro-6H-pyrrolo[3,4-b]pyridine-6-carboxylate], for which the IC50 is 1 to 10 µM. On to `Cc1ccc(F)c([C@H](C)[C@H](NS(=O)(=O)N2CCC3(CCCC3)CC2)c2n[nH]c(=O)o2)c1C` [Example 72, N-((1S,2S)-2-(6-fluoro-2,3-dimethylphenyl)-1-(5-oxo-4,5-dihydro-1,3,4-oxadiazol-2-yl)propyl)-8-azaspiro[4.5]decane-8-sulfonamide], for which the IC50 was 1 to 10 µM. Then `Cc1ccc(F)c([C@H](C)[C@H](NS(=O)(=O)N2CCC(Oc3ccccc3)CC2)c2n[nH]c(=O)o2)c1C` [Example 54, N-((1S,2S)-2-(6-fluoro-2,3-dimethylphenyl)-1-(5-oxo-4,5-dihydro-1,3,4-oxadiazol-2-yl)propyl)-4-phenoxypiperidine-1-sulfonamide], with 10 to 100 µM; and `Cc1ccc(F)c(C(C)[C@H](NS(=O)(=O)N2CCC3(CCC(=O)N3C)CC2)c2n[nH]c(=O)o2)c1C` (stereo partly drawn) [Example 93, N-((1S)-2-(6-fluoro-2,3-dimethylphenyl)-1-(5-oxo-4,5-dihydro-1,3,4-oxadiazol-2-yl)propyl)-1-methyl-2-oxo-1,8-diazaspiro[4.5]decane-8-sulfonamide], with 1 to 10 µM; and `Cc1ccc(F)c([C@@H](C)[C@H](NS(=O)(=O)N2CCC(N3CCCC3)CC2)c2n[nH]c(=O)o2)c1C` [Example 50, N-((1S,2R)-2-(6-fluoro-2,3-dimethylphenyl)-1-(5-oxo-4,5-dihydro-1,3,4-oxadiazol-2-yl)propyl)-4-(pyrrolidin-1-yl)piperidine-1-sulfonamide], with 10 to 100 µM. Then `Cc1ccc(F)c([C@@H](C)[C@H](NS(=O)(=O)N2CCc3cc(Cl)ccc3C2)c2n[nH]c(=O)o2)c1C` [Example 107, 6-chloro-N-((1S,2R)-2-(6-fluoro-2,3-dimethylphenyl)-1-(5-oxo-4,5-dihydro-1,3,4-oxadiazol-2-yl)propyl)-3,4-dihydroisoquinoline-2(1H)-sulfonamide], with 0.1 to 1 µM; and `Cc1ccc(F)c([C@H](C)[C@H](NS(=O)(=O)N2CCC3(CCCCC3)CC2)c2n[nH]c(=O)o2)c1C` [Example 88, N-((1S,2S)-2-(6-fluoro-2,3-dimethylphenyl)-1-(5-oxo-4,5-dihydro-1,3,4-oxadiazol-2-yl)propyl)-3-azaspiro[5.5]undecane-3-sulfonamide], with 1 to 10 µM. For `Cc1ccc(F)c([C@@H](C)[C@H](NS(=O)(=O)N2CCC(C)CC2)c2n[nH]c(=O)o2)c1C` [Example 115, N-((1S,2R)-2-(6-fluoro-2,3-dimethylphenyl)-1-(5-oxo-4,5-dihydro-1,3,4-oxadiazol-2-yl)propyl)-4-methylpiperidine-1-sulfonamide], the IC50 lay in the range of 0.1 to 1 µM. Under `Cc1ccc(F)c([C@@H](C)[C@H](NS(=O)(=O)N2CC(C)CC(C)C2)c2n[nH]c(=O)o2)c1C` (stereo partly drawn) [Example 121, N-((1S,2R)-2-(6-fluoro-2,3-dimethylphenyl)-1-(5-oxo-4,5-dihydro-1,3,4-oxadiazol-2-yl)propyl)-3,5-dimethylpiperidine-1-sulfonamide] stands 1 to 10 µM; under `CC(=O)NC1CCN(S(=O)(=O)N[C@H](c2n[nH]c(=O)o2)C(C)c2c(F)ccc(C)c2C)CC1` (stereo partly drawn) [Example 29, N-(1-(N-((1S)-2-(6-fluoro-2,3-dimethylphenyl)-1-(5-oxo-4,5-dihydro-1,3,4-oxadiazol-2-yl)propyl)sulfamoyl)piperidin-4-yl)acetamide], 10 to 100 µM; under `Cc1ccc(F)c(C(C)[C@H](NS(=O)(=O)N2CCCCC2)c2n[nH]c(=O)o2)c1C` (stereo partly drawn) [Example 138, N-((1S)-2-(6-fluoro-2,3-dimethylphenyl)-1-(5-oxo-4,5-dihydro-1,3,4-oxadiazol-2-yl)propyl)piperidine-1-sulfonamide], 0.1 to 1 µM. Under `Cc1ccc(F)c([C@H](C)[C@H](NS(=O)(=O)N2CCC(C(C)(C)C)CC2)c2n[nH]c(=O)o2)c1C` [Example 132, 4-(tert-butyl)-N-((1S,2S)-2-(6-fluoro-2,3-dimethylphenyl)-1-(5-oxo-4,5-dihydro-1,3,4-oxadiazol-2-yl)propyl)piperidine-1-sulfonamide] stands 1 to 10 µM. Then `C#CC1CCN(S(=O)(=O)N[C@H](c2n[nH]c(=O)o2)[C@H](C)c2c(F)ccc(C)c2C)CC1` [Example 48, 4-ethynyl-N-((1S,2R)-2-(6-fluoro-2,3-dimethylphenyl)-1-(5-oxo-4,5-dihydro-1,3,4-oxadiazol-2-yl)propyl)piperidine-1-sulfonamide], with 1 to 10 µM; and `COC(=O)C1(C)CCN(S(=O)(=O)N[C@H](c2n[nH]c(=O)o2)[C@H](C)c2c(F)ccc(C)c2C)CC1` [Example 78, methyl 1-(N-((1S,2R)-2-(6-fluoro-2,3-dimethylphenyl)-1-(5-oxo-4,5-dihydro-1,3,4-oxadiazol-2-yl)propyl)sulfamoyl)-4-methylpiperidine-4-carboxylate], with 0.1 to 1 µM.

Take `Cc1ccc(F)c([C@H](C)[C@H](NS(=O)(=O)N2CCC(Cl)(Cl)CC2)c2n[nH]c(=O)o2)c1C` [Example 98, 4,4-dichloro-N-((1S,2S)-2-(6-fluoro-2,3-dimethylphenyl)-1-(5-oxo-4,5-dihydro-1,3,4-oxadiazol-2-yl)propyl)piperidine-1-sulfonamide]: the IC50 lay in the range of 1 to 10 µM. Under `Cc1ccc(F)c([C@H](C)[C@H](NS(=O)(=O)N2CCC(C3CCCCC3)CC2)c2n[nH]c(=O)o2)c1C` [Example 10, 4-cyclohexyl-N-((1S,2S)-2-(6-fluoro-2,3-dimethylphenyl)-1-(5-oxo-4,5-dihydro-1,3,4-oxadiazol-2-yl)propyl)piperidine-1-sulfonamide] stands 10 to 100 µM; under `Cc1ccc(F)c([C@@H](C)[C@H](NS(=O)(=O)N2CCC(Br)CC2)c2n[nH]c(=O)o2)c1C` [Example 100, 4-bromo-N-((1S,2R)-2-(6-fluoro-2,3-dimethylphenyl)-1-(5-oxo-4,5-dihydro-1,3,4-oxadiazol-2-yl)propyl)piperidine-1-sulfonamide], 0.1 to 1 µM; under `COC1CCN(S(=O)(=O)N[C@H](c2n[nH]c(=O)o2)[C@H](C)c2c(F)ccc(C)c2C)CC1` [Example 125, N-((1S,2R)-2-(6-fluoro-2,3-dimethylphenyl)-1-(5-oxo-4,5-dihydro-1,3,4-oxadiazol-2-yl)propyl)-4-methoxypiperidine-1-sulfonamide], 0.1 to 1 µM.

As for `Cc1ccc(F)c([C@@H](C)[C@H](NS(=O)(=O)N2CCC(C3CCCCC3)CC2)c2n[nH]c(=O)o2)c1C` [Example 9, 4-cyclohexyl-N-((1S,2R)-2-(6-fluoro-2,3-dimethylphenyl)-1-(5-oxo-4,5-dihydro-1,3,4-oxadiazol-2-yl)propyl)piperidine-1-sulfonamide], the IC50 lay within 10 to 100 µM. Under `Cc1ccc(F)c([C@H](C)[C@H](NS(=O)(=O)N2CCc3ccccc3C2)c2n[nH]c(=O)o2)c1C` [Example 136, N-((1S,2S)-2-(6-fluoro-2,3-dimethylphenyl)-1-(5-oxo-4,5-dihydro-1,3,4-oxadiazol-2-yl)propyl)-3,4-dihydroisoquinoline-2(1H)-sulfonamide] stands 1 to 10 µM. On to `Cc1ccc(F)c([C@@H](C)[C@H](NS(=O)(=O)N2CCCC[C@@H]2C(N)=O)c2n[nH]c(=O)o2)c1C` [Example 12, (R)-1-(N-((1S,2R)-2-(6-fluoro-2,3-dimethylphenyl)-1-(5-oxo-4,5-dihydro-1,3,4-oxadiazol-2-yl)propyl)sulfamoyl)piperidine-2-carboxamide], for which the IC50 lay within 1 to 10 µM.
